Reference: patent publication US9296687B2, “Modulators of HSP70/DnaK function and methods of use thereof” (The Trustees of the University of Pennsylvania, priority 2008, dated 2016)
Peptide text beside a SMILES is read from it. * marks the point of attachment. Cbz = O=C(OCc1ccccc1)*; CH2F = FC*

Columns and labels:
GRP78 = GRP78 (Homo sapiens, UniProt P11021); assay: Biotin-PES complexes captured with NeutrAvidin resins from treated cells, IP-WB; conditions: 20 μM, 24 h
HSP70 [1] = biological target: T1, HSP70 (Homo sapiens, UniProt P0DMV8); assay: Competition of untagged PES with B-PES for HSP70; assay type: binding; set-up: endogenous in cells; host or cells: human tumor cell lines (A875, BX-U2OS, U2OS, H1299, MiaPaCa2, HepG2, SKBR3, 293T); conditions: purified HSP70, 0.25 mM B-PES, 0.125 mM untagged PES
Description: FIG. 15. Evidence supporting HSP70 as the cellular target of PES. (A) Competition studies in vivo support HSP70 as a PES target. H1299 cells were either pre-treated with DMSO or excess (25×) untagged PES for 1 h prior to the addition of 20 μM Biotin-PES (B-PES) for 5 h, and examined for the expression of proteins indicated (left). B-PES-containing complexes were captured by NeutrAvidin Resins, and immunoblotted using the indicated antibodies. […] (B) Competition studies in vitro support HSP70 as a PES target. Purified HSP70 protein was incubated with 0.25 mM B-PES in the absence and in the presence of 0.125 mM untagged PES.
Target sequence in this assay (P0DMV8 whole entry): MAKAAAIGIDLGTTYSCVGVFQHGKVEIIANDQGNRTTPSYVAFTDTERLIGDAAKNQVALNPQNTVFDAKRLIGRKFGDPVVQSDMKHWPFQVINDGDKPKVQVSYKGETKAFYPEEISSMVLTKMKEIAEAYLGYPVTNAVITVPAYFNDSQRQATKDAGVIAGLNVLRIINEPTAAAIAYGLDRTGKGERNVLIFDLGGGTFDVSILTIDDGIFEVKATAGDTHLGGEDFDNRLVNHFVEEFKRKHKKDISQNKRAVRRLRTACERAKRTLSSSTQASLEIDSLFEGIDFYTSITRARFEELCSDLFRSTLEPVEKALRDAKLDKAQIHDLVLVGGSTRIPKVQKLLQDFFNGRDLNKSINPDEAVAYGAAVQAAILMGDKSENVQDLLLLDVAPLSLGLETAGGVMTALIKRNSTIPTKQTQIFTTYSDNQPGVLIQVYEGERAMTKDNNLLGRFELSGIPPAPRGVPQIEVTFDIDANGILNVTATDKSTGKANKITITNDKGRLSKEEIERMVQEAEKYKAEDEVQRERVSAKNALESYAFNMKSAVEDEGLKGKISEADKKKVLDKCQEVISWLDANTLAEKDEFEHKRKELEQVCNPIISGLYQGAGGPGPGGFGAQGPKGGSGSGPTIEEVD

HSP70 [2] = biological target: T1, HSP70; assay: Biotin-PES complexes captured with NeutrAvidin resins from treated cells, IP-WB; conditions: 20 μM
Target sequence in this assay (P0DMV8 whole entry): as above

HSP90 = assay: as above; conditions: 20 μM, 24 h
HSP70 [3] = biological target: T1, HSP70; assay: Capture of HA-tagged HSP70 constructs from transfected H1299 cells with biotinylated compound; assay type: binding; set-up: expressed in transfected cells; host or cells: H1299
Description: FIG. 1. PES Binds to HSP70. (A) Whole cell extracts (WCE) prepared from A875 and BCL-xL over-expressing U2OS human osteosarcoma cells (BX-U2OS) cells, treated with Biotin or Biotin-PES (B-PES), were captured using NeutrAvidin agarose resins. HSP70-family proteins were identified as the major product in the excised band of ˜70 kDa shown in both Coomassie gels. (B and C) WCE were prepared from the cell lines indicated following 24 h treatment with 20 μM Biotin or B-PES and examined for the expression of proteins indicated (left panel of B and C) by western blot analysis; note that different exposure times were used to visualize these proteins. […] (D) In vitro evidence for an interaction between B-PES and HSP70. Full-length human HSP70 and human HSP90 proteins were in vitro translated in the presence of ^35S-methionine, mixed with B-PES coupled to NeutrAvidin resins, and eluted using 100 mM DTT. The resulting DTT eluates were separated by polyacrylamide gel electrophoresis (SDS-PAGE) and visualized by autoradiography. (E) B-PES interacts with the C-terminal region of HSP70. H1299 cells were transfected with the indicated hemagglutinin (HA)-tagged constructs and exposed to B-PES. B-PES containing complexes were captured by NeutrAvidin Resins, eluted following 100 mM DTT treatment, and immunoblotted with anti-HA antibody following SDS-PAGE. (F) Non-transformed human IMR90 fibroblasts or H1299 lung carcinoma cells were treated with the indicated concentrations of PES for 24 h and cell viability was determined by MTT assays. (G) WCE were prepared from the cell lines indicated following 5 hr treatment with 20 μM PES or B-PES and examined for the expression of proteins indicated (left panel) by western blot analysis; note that different exposure times were used to visualize these proteins. B-PES-containing complexes were captured by NeutrAvidin resins, eluted following 50 mM DTT treatment, and immunoblotted using the indicated antibodies.
The free amide group of PES-Cl was biotinylated and added to HA-tagged HSP70-transfected H1299 cells. The treatment of the cells occurred for 6 hours. The complexes were pulled down with NeutrAvidin beads, eluted with 100 mM DTT treatments, separated with SDS-PAGE and detected with anti-HA antibody (Millipore) by Western blot.
Docking studies were performed using the C-terminal HSP70 crystal structure (FIG. 32) to elucidate the PES binding site in silico (FIG. 33). Blind docking methods were used in the program AutoDock to locate potential PES binding sites. These methods use a course grid docking approach, encompassing the entire protein, to identify favorable binding sites using a known binding ligand, and are examined by hand to support the AutoDock data. […]

HSC70 = HSC70 (Homo sapiens, UniProt P11142); assay: Biotin-PES complexes captured with NeutrAvidin resins from treated cells, IP-WB; conditions: 20 μM
HSC70, sequence (P11142 whole entry): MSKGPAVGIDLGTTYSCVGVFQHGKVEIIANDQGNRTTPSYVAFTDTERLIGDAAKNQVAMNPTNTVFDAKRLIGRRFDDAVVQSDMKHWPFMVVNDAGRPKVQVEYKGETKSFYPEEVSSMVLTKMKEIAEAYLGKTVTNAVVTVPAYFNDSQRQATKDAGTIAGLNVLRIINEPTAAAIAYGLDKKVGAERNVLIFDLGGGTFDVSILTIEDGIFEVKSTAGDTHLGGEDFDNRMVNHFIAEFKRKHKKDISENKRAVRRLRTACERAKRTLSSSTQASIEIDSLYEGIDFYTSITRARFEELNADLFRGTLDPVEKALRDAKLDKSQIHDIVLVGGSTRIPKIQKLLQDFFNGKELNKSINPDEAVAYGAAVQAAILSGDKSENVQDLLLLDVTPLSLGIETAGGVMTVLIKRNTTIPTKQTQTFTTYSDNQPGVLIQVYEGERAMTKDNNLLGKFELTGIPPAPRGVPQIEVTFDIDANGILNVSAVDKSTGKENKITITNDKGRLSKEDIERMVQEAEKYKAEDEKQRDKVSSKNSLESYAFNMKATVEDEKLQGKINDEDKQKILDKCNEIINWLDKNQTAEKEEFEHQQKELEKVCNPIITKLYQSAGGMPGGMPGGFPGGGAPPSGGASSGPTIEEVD

HSP70 [4] = biological target: T1, HSP70; assay: In vitro binding of B-PES on NeutrAvidin resins to 35S-labelled in vitro translated protein
Target sequence in this assay (P0DMV8 whole entry): as the sequence (P0DMV8 whole entry) above

p62/SQSTM1, LC3 = assay: Autophagy markers in cultured cells (vacuoles, LC3-II, p62/SQSTM1, electron microscopy); assay type: cell-based, human; conditions: for p62/SQSTM1 oligomers in soluble and detergent-insoluble fractions: 24 h, PES 20 μM, Velcade 100 nM, CQ 50 μM, 17-AAG 15 nM
caspase-3, caspase-8 = assay: Western blot for caspase cleavage; assay type: cell-based, human; conditions: U2OS, 20 μM pretreatment 1 h
tumor cell lines = assay: MTT cell viability assay; assay type: cell-based, human; conditions: 20 μM pretreatment 1 h, then 20 μM PES 24 h
Description: Cell viability assays were performed using an MTT (methyl thiazolyl tetrazolium) colorimetric assay (Roche Applied Science, Cat. No. 11 465 007 001), with the following modifications. Briefly, cells (1×10^4) were plated into 24 well-assay plates in 0.5 ml media and allowed to attach overnight. […] After the incubation period, 50 μl of the water-soluble MTT labeling reagent [3-[4,5-dimethylthiazol-2-yl]-2,5-diphenyl tetrazolium bromid] were added to the cells, and the cells were incubated for 4 h in a humidified chamber at 37° C. with 5% CO2. The metabolized insoluble formazan crystals were then solubilized using 0.5 ml of the Solubilization solution (10% SDS in 0.01M HCl) per well, and the resulting colored solutions were spectrophotometrically quantified at an absorbance of 570 nm.

EGFR, HER2/ErbB2, AKT = assay: Western blot of HSP70/HSP90 client proteins in detergent-soluble and detergent-insoluble fractions; assay type: cell-based, human
Description: FIG. 17. PES impairs the proteasome system. (A) Cell-based 20S proteasome activity assay of H1299 or A875 human tumor cells treated with DMSO, 20 μM PES, 100 nM Velcade (proteasome inhibitor), 1 μM 17-AAG (HSP90 inhibitor), 5 μM CQ (lysosome inhibitor), or 20S proteasome inhibitor epigallocatechin gallate (EGCG). Each graphical representation indicates the mean±SD of at least three independent cultures relative to control (DMSO-treated) cells. (B) Cell extracts from SKBR3 human breast carcinoma cells, treated either with 20 μM PES or 1 μM 17-AAG for 24 h, were immunoprecipitated (IP) using anti-HSP70 or anti-HSP90 antibody. […] MTT assays of MCF7 human breast carcinoma cells pretreated with DMSO, or 5 μM PES for 1 h, followed by the addition of indicated amount of 17-AAG for 47 h. The results represent the mean±SD of at least three independent analysis of cultures relative to control (DMSO-treated) cells. (D and E) H1299 cells (D) or SKBR3 cells (E) were treated with DMSO, 20 μM PES, 17-AAG, or 17-AAG plus bortezomib (Velcade) as indicated; harvested in 1% NP-40 containing lysis buffer; fractionated into detergent-soluble and detergent-insoluble preparations; and assayed by western blot.
FIG. 18. Accumulation of HSP90 client proteins in the protein detergent-insoluble fraction following PES. (A) SKOV3 cells were treated with DMSO, 10 μM PES, or 20 μM PES for 24 h. Note the marked accumulation of EGFR, HER2/ErbB2, and AKT in the detergent-insoluble fraction following 20 μM PES treatment. (B and C) SKOV3 (B) or SKBR3 (C) cells were treated with DMSO, 20 μM PES, or 1 μM 17-AAG, as indicated, for 24 h. Cells were harvested in 1% NP-40 containing lysis buffer, fractionated into detergent-soluble and detergent-insoluble preparations, and assayed by western blot for the proteins indicated.
The HSP70 and HSC70 proteins bind to exposed hydrophobic regions of nascent-, translocating-, misfolded- or partially unfolded-proteins. These ATP-dependent molecular chaperones act in multi-protein complexes in conjunction with one or more regulatory co-chaperones to carry out multiple cellular functions. […] This is illustrated for H1299 cells treated with 10 or 20 μM PES for 24 h. […] This correlates with a reduced abundance of complexes containing HSP70, or HSC70, together with client proteins or co-chaperones (FIGS. 19A and 19B). […] However, since HSP70/HSC70 act as critical co-chaperones for HSP90, for example in client protein recruitment, PES-mediated alteration in the function of the 70-kDa molecular chaperones could be reflected in an altered behavior or expression of many client proteins. To test this idea, we examined the expression of a few well-established HSP90 client proteins, including the transmembrane tyrosine kinase receptors EGFR and HER2/ERBB2, and the downstream signaling factor AKT. These proteins are overexpressed, or aberrantly expressed, in a variety of human tumors, and have been implicated in cancer etiology and pathology. As a control for these studies, we compared the effects of PES to that of the well-established HSP90 inhibitor, 17-allylamino-17-demethoxygeldanamycin (17-AAG). 17-AAG interacts with the N-terminal region of HSP90 and inhibits its ATPase activity; this disrupts interactions of HSP90 with client proteins and leads to client-protein degradation via the ubiquitin-proteasome pathway (Whitesell, et al. 2005; Neckers, et al. 2007). To examine the expression of some HSP70/HSP90 clients, we used western blot analysis of detergent-soluble (clarified) whole cell extracts.

20S proteasome = assay: Cell-based 20S proteasome activity assay; set-up: species or system human; conditions: H1299 or A875 cells; PES 20 μM, 17-AAG 1 μM, CQ 5 μM

GRP78, sequence (P11021 19-654): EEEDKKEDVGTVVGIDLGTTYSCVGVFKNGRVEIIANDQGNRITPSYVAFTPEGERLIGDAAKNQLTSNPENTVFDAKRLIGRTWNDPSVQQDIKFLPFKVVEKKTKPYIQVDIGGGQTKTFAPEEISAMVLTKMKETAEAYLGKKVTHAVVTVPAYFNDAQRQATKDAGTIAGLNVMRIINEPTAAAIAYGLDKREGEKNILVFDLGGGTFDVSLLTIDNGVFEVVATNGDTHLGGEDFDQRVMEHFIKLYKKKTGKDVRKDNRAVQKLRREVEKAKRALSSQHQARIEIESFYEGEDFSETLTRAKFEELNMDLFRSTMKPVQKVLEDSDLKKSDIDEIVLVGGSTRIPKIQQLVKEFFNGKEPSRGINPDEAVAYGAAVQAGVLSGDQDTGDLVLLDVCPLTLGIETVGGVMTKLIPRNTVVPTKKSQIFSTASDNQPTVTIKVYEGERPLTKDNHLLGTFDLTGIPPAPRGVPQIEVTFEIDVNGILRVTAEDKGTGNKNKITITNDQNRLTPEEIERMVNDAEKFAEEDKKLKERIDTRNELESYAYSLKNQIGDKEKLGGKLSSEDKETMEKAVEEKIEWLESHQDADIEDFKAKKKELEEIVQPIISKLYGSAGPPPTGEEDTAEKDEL

SMILES: O=C(CCCCC1SCC2NC(=O)NC21)NCCSSCCC(=O)NS(=O)(=O)C#Cc1ccccc1 (centres unmarked) [B-PES]
- interaction with endogenous GRP78 (GRP78): no detectable interaction
- B-PES/HSP70 complex formation (HSP70 [1]): direct interaction between B-PES and HSP70
- HSP70 captured with B-PES (HSP70 [2]; IMR90 fibroblasts): did not observe a PES interaction
- interaction with endogenous HSP70 (HSP70 [2]; several cell lines, 24 h): interacts with HSP70
- HSP70 captured with B-PES (HSP70 [2]; tumor cells, 5 hr (FIG. 1G)): found together with this small molecule
- interaction with endogenous HSP90 (HSP90): no detectable interaction
- interaction with amino-terminal ATPase domain of HSP70 (HSP70 [3]; amino acids 2-385): not the amino-terminal ATPase domain
- interaction with carboxyl-terminal substrate-binding domain of HSP70 (HSP70 [3]; amino acids 386-641): interacts with the carboxyl-terminal substrate-binding domain
- interaction with endogenous HSC70 (HSC70; 24 h): no detectable interaction
- HSC70 captured with B-PES (HSC70; IMR90 fibroblasts): did not observe a PES interaction
- HSC70 captured with B-PES (HSC70; tumor cells, 5 hr (FIG. 1G)): found together with this small molecule
- interaction with in vitro translated HSP70 (HSP70 [4]): interacts with in vitro translated HSP70

SMILES: CC(C)C[C@H](NC(=O)[C@H](Cc1ccccc1)NC(=O)c1cnccn1)B(O)O [Velcade, bortezomib]
- p62/SQSTM1 oligomers in soluble and detergent-insoluble fractions (p62/SQSTM1, LC3): promoted p62/SQSTM1 oligomerization primarily in the detergent-insoluble fraction

SMILES: C[C@@H]1C[C@@H]([C@H](O)CC2CC(=O)NC(=O)C2)C(=O)[C@@H](C)C1 [CHX, cycloheximide]
- PES-induced p62/SQSTM1 accumulation and oligomerization under co-treatment (p62/SQSTM1, LC3; co-treated with PES for 6 h): reduced the accumulation and oligomerization of the autophagy marker p62/SQSTM1

SMILES: COC(=O)C[C@H](NC(=O)[C@H](C)NC(=O)[C@@H](NC(=O)OCc1ccccc1)C(C)C)C(=O)CF [Z-VAD-FMK] (Cbz-Val-Ala-Asp(OMe)-CH2F)
- cisplatin- and camptothecin-mediated caspase cleavage (caspase-3, caspase-8): inhibited cisplatin- as well as camptothecin-mediated caspase cleavage
- effect on PES-mediated loss of cell viability (tumor cell lines): did not alter PES-mediated loss of cell viability

SMILES: C=CCNC1=C2C[C@@H](C)C[C@H](OC)[C@H](O)[C@@H](C)/C=C(\C)[C@H](OC(N)=O)[C@@H](OC)/C=C\C=C(/C)C(=O)NC(=CC1=O)C2=O [17-AAG, 17-allylamino-17-demethoxygeldanamycin]
- p62/SQSTM1 oligomers in soluble and detergent-insoluble fractions (p62/SQSTM1, LC3): neither p62/SQSTM1 accumulation nor oligomerization was noted
- fate of HSP90 client proteins (EGFR, HER2/ErbB2, AKT): causes proteasome-mediated degradation of HSP90 client proteins
- overall cellular abundance of EGFR, HER2/ErbB2 and AKT (EGFR, HER2/ErbB2, AKT; SKBR3 cells, detergent-soluble extracts, 24 h): reduction in the overall cellular abundance
- activity of the 20S proteasome (20S proteasome): little, if any, effect
